Experimental data reported in patent US10330678B2, “Methods and systems for modulating hormones and related methods, agents and compositions” (California Institute of Technology, priority 2010, dated 2019).
Where a name gives a salt, the structure may show the parent alone. Read-outs that look alike come from different tables or passages of the source.

Legend:
NCI-H716 cells = assay: GLP-1 release from endocrine cell line NCI-H716 (GLP-1 RIA kit); format: cell-based
Experimental: Endocrine cell lines of NCI-H716 cells were used for testing release of GLP-1 triggered by various possible ligands.
NCI-H716 cells were incubated in serum-free DME/F12 media containing vehicle (0.01% DMSO) with a candidate ligand at the indicated concentrations. Secretion active GLP-1 in media was measured with GLP-1 RIA kit (Linco Research, Missouri, USA). The experiments for all groups have been conducted in duplicates.

hTAS2R47 = target: T1, hTAS2R47 (Homo sapiens, UniProt P59541); details: observed by Pronin et al. [Pronin 2004]; cited from earlier work
T1 sequence (P59541 1-319): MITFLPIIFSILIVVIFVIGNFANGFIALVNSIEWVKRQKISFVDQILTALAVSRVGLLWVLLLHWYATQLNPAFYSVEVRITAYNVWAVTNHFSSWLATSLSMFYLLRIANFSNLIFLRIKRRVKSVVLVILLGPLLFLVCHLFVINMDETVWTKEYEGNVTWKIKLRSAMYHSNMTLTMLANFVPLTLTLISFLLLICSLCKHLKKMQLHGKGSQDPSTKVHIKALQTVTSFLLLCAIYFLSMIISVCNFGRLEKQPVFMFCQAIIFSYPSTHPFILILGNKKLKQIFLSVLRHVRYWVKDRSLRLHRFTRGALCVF

STC-5 cells = details: 30 minutes incubation, PTC at various concentrations, versus vehicle (FIGS. 24A, 24B)
Experimental: In GLP-1 release experiments, selected endocrine cell lines of STC-5 cells or NCI-H716 cells were used for testing release of GLP-1 triggered by various possible ligands. Endocrine cells were incubated in serum-free DME/F12 media containing vehicle (0.01% DMSO) and a candidate ligand of certain concentration and for a certain period of incubation time. After incubation, secretion active GLP-1 in media was measured with GLP-1 RIA kit (Linco Research®, Missouri, USA).
Secretion of active GLP-1 in media was measured with GLP-1 RIA kit (Linco Research, Missouri, USA). The experiments for all groups have been conducted in duplicates.

male Sprague-Dawley rats = system: male Sprague-Dawley rats
Experimental: The rats were then euthanized 45 min later and removed blood via intracardiac puncture and measured PYY in the blood by a recently modified radioimmunoassay using CURE antibody 9153 (Gift of J Reeve, University of California, Los Angeles.).

bitter taste = details: average; cited from earlier work
[1] = NCI-H716 cells, ligand concentration 10 μm, duplicates, control 58.47
[2] = summary of Table 2, versus control

Structure (SMILES) | GLP-1 (pmol/mg protein) (NCI-H716 cells; [1]) | effect on release of GLP-1 from NCI-H716 cells (in words) (NCI-H716 cells; [2]) | also measured
C=CCSC [Allyl methyl sulfide] | 91.547 pmol/mg protein | increase the release of GLP-1 | –
COc1ccc2cc3[n+](cc2c1OC)CCc1cc2c(cc1-3)OCO2 [Berberine chloride] | 86.41 pmol/mg protein | increase the release of GLP-1 | –
CCCC(=O)O [Butyrate, reference compound] | – | – | GLP-1 (pmol/mg protein) (NCI-H716 cells; NCI-H716 cells, ligand concentration 2.5 mM, duplicates, control 58.47): 100.77 pmol/mg protein
O=C1NS(=O)(=O)c2cccc([N+](=O)[O-])c21 [Compound 4NS, 4-Nitro saccharin] | – | – | activation of hTAS2R47 (in words) (hTAS2R47): very weak inverse agonist
O=C1NS(=O)(=O)c2cc([N+](=O)[O-])ccc21 [Compound 6NS, 6-Nitro saccharin] | – | – | activation of hTAS2R47 (in words) (hTAS2R47): activated the receptor to a lesser extent
c1c2c(cc3c1OCO3)-c1cc3ccc4c(c3c[n+]1CC2)OCO4 [Coptisine chloride] | 121.35 pmol/mg protein | increase the release of GLP-1 | –
COc1cc(/C=C/C(=O)CC(=O)/C=C/c2ccc(O)c(OC)c2)ccc1O [Curcumin] | 61.52 pmol/mg protein | – | –
CC[N+](CC)(CC(=O)Nc1c(C)cccc1C)Cc1ccccc1 [Denatonium] | – | – | activation of hTAS2R47 (in words) (hTAS2R47): activated strongest
O=c1oc2c(O)c(O)cc3c(=O)oc4c(O)c(O)cc1c4c23 [Ellagic acid] | 77.25 pmol/mg protein | increase the release of GLP-1 | –
CCCCCCCCCCCC1=C(O)C(=O)C=C(O)C1=O [Embelin] | 83.55 pmol/mg protein | – | –
O=C(O[C@@H]1Cc2c(O)cc(O)cc2O[C@@H]1c1cc(O)c(O)c(O)c1)c1cc(O)c(O)c(O)c1 [Epigallocatechin gallate] | – | increase the release of GLP-1 | GLP-1 (pmol/mg protein) (NCI-H716 cells; NCI-H716 cells, ligand concentration 1 μm, duplicates, control 58.47): 91.15 pmol/mg protein
CC1(C)[C@@H](O[C@H]2O[C@H](C(=O)O)[C@@H](O)[C@H](O)[C@H]2O[C@@H]2O[C@H](C(=O)O)[C@@H](O)[C@H](O)[C@H]2O)CC[C@]2(C)[C@H]3C(=O)C=C4[C@@H]5C[C@@](C)(C(=O)O)CC[C@]5(C)CC[C@@]4(C)[C@]3(C)CC[C@@H]12 [Glycyrrhizic acid ammonium salt] | 71.95 pmol/mg protein | increase the release of GLP-1 | –
CC(C)=CCC[C@]1(C)[C@@H](CC=C(C)C)C[C@@]2(CC=C(C)C)C(=O)[C@]1(C(=O)C(C)C)C(=O)C(CC=C(C)C)=C2O [Hyperforin] | – | increase the release of GLP-1 | GLP-1 (pmol/mg protein) (NCI-H716 cells; NCI-H716 cells, ligand concentration 5 μg/ml, duplicates, control 58.47): 104.87 pmol/mg protein
NC(=S)Nc1ccccc1 [PTC, Phenylthiocarbamide] | – | – | GLP-1 (pmol/mg protein) (NCI-H716 cells): 98.73 pmol/mg protein; effect on release of GLP-1 from NCI-H716 cells (in words) (NCI-H716 cells): increase the release of GLP-1; effect on GLP-1 release from STC-5 cells (in words) (STC-5 cells): large effect; change of PYY levels versus saline gavaged rats (in words) (male Sprague-Dawley rats; 5 mM PTC in 5 ml saline by gastric gavage, 45 min): doubling; PYY in the blood (male Sprague-Dawley rats; 5 mM PTC in 5 ml saline by gastric gavage, 45 min later, n=5, saline rats 71+/−35 pM): 154 ± 44 pM; volume of fluid remaining in the stomachs (male Sprague-Dawley rats; at sacrifice 45 min after gavage of 5 ml, saline-treated rats less than 0.5 ml): 1 to 2 mL
CC(=O)c1c(O)c(C)c(O)c(Cc2c(O)c3c(c(C(=O)/C=C/c4ccccc4)c2O)OC(C)(C)C=C3)c1O [Rottlerin] | – | increase the release of GLP-1 | GLP-1 (pmol/mg protein) (NCI-H716 cells; NCI-H716 cells, ligand concentration 0.05%, duplicates, control 58.47): 111.18 pmol/mg protein
C=C[C@H]1C[N@@]2CC[C@H]1C[C@H]2[C@H](O)c1ccnc2ccc(OC)cc12 [quinine] | – | – | threshold for stimulation of bitter taste (bitter taste): 8 µM
